Five compounds from patent publication US12227509B2, “Dihydropyrazolopyrazinone derivative having MGAT2 inhibitory activity” (Shionogi & Co., Ltd., priority 2019, dated 2025) can be followed below.

≈ marks a conversion by molar mass, not a printed value. A value given as a limit tells only on which side of the number the result lay.

In one series the target is recombinant human MGAT2 (Homo sapiens (Human), UniProt Q3SYC2). The experiment in a line: Measurement of human MGAT2 inhibitory activity. Format: biochemical. As to conditions: concentration exhibiting 50% enzyme inhibition; recombinant human MGAT2, 2-Oleoylglycerol/Oleoyl-CoA. An outline of the steps: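 Membrane fraction of baculovirus-infected Sf-9 cells expressing N-terminally Flag-tagged full-length human MGAT2, in 100 mmol/L phosphate pH 7.4 with 2 mmol/L DTT. The substrate solution held 30 μmol/L 2-oleoylglycerol and 10 μmol/L oleoyl-CoA. After 1 h at room temperature, diolein/diolein-d5 ratio was read by ESI Q-TOF MS and % inhibition derived against enzyme and no-enzyme controls.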

A further series in a line: Solution stability test. Format: physicochemical. As to conditions: 18 hr. On the procedure:
The compound of the present invention (0.4 mg) was weighed into a 4 mL screw vial, and 2 mL of various media pH=1 (0.1 N HClaq.+30% MeCN), pH=7 (pH 7 phosphate Buffer (100 mM+30% MeCN) or pH=9 (pH 9 carbonate Buffer (100 mM+30% MeCN) was added, respectively. Complete dissolution was confirmed. If not dissolved, filtration was performed with a 0.45 μm filter. The solution or filtrate was placed in an HPLC vial. HPLC sample cooler was set at 40° C., and sequence was set so that sampling was performed by HPLC at 0, 3, 6, 9, 12, 15, and 18 hours. Stability over time was evaluated by setting the area value of 0 hr product to 100%.

A short description of series [1]: BA test (oral absorption). Conditions: plasma; mice or SD rats; from AUCs of oral and intravenous administration. In kind it is in vivo. On the procedure:
Materials and methods for experiments to evaluate oral absorption
(1) Animals: the mice or SD rats were used.
(2) Breeding conditions: the mice or SD rats were allowed to freely take solid food and sterilized tap water.
(3) Setting of dosage and grouping: Oral administration and intravenous administration were performed with a predetermined dosage. Grouping was set as below. (dosage changed per compound)
Oral administration: 1 to 30 mg/kg (n=2 to 3)
Intravenous administration: 0.5 to 10 mg/kg (n=2 to 3)
(4) Preparation of administration solution: Oral administration was performed in the form of a suspension or a solution. Intravenous administration was performed after solubilization.
(5) Routes of administration: Oral administration was performed mandatory into the stomach by oral sonde. Intravenous administration was performed from caudal vein or femoral vein by syringes with needle.
(6) Evaluation items: blood was collected over time, and the plasma concentration of the compound of the present invention was measured by LC/MS/MS.
(7) Statistical analysis: regarding the transition of the plasma concentration of the compound of the present invention, the area under the plasma concentration-time curve (AUC) was calculated by non-linear least squares program WinNonlin (registered trademark), and the bioavailability (BA) of the compound of the present invention was calculated from the AUCs of the oral administration group and intravenous administration group.

The target in the next series is CYP2C9 (Homo sapiens (Human), UniProt P11712). Nature of the series: CYP inhibition test, CYP2C9. Format: in vitro ADME. As to conditions: pooled human liver microsomes; tolbutamide methyl-hydroxylation; given as 'five kinds'. The source says:
(§1) Using commercially available pooled human hepatic microsome, and employing, as markers, 7-ethoxyresorufin O-deethylation (CYP1A2), tolbutamide methyl-hydroxylation (CYP2C9), mephenytoin 4'-hydroxylation (CYP2C19), dextromethorphan 0-demethylation (CYP2D6), and terfenadine hydroxylation (CYP3A4) as typical substrate metabolism reactions of human main five CYP enzyme forms (CYP1A2, 2C9, 2C19, 2D6, 3A4), an inhibitory degree of each metabolite production amount by the compound of the present invention was assessed. The reaction conditions are as follows: substrate, 0.5 μmol/L ethoxyresorufin (CYP1A2), 100 μmol/L tolbutamide (CYP2C9), 50 μmol/L S-mephenitoin (CYP2C19), 5 μmol/L dextromethorphan (CYP2D6), 1 μmol/L terfenedine (CYP3A4); reaction time, 15 minutes; reaction temperature, 37° C.; enzyme, pooled human liver microsomes 0.2 mg protein/mL; concentrations of the compound of the present invention, 1, 5, 10, 20 μmol/L (four points). As a reaction solution, each five kinds of substrates, human liver microsomes, or compound of the present invention in 50 mmol/L Hepes buffer were added to a 96-well plate at the composition as described above, and NADPH, as a cofactor was added to initiate metabolism reactions. After the incubation at 37° C. for 15 minutes, a methanol/acetonitrile=1/[…]) solution was added to stop the reaction. After the centrifugation at 3000 rpm for 15 minutes, resorufin (CYP1A2 metabolite) in the supernatant was quantified by a fluorescent multilabel counter or LC/MS/MS, and tolbutamide hydroxide (CYP2C9 metabolite), mephenytoin 4' hydroxide (CYP2C19 metabolite), dextrorphan (CYP2D6 metabolite), and terfenadine alcohol (CYP3A4 metabolite) were quantified by LC/MS/MS. Addition of only DMSO being a solvent dissolving a drug to a reaction system was adopted as a control (100%). Remaining activity (%) was calculated. IC50 was calculated by reverse presumption by a logistic model using the concentration and an inhibition rate.
Background: Liver microsomes are a subcellular fraction often used to study metabolism.

A further series concerns the target CYP2C19 (Homo sapiens (Human), UniProt P33261). Nature of the series: CYP inhibition test, CYP2C19. Format: in vitro ADME. Conditions: pooled human liver microsomes; mephenytoin 4′-hydroxylation; given as 'five kinds'.
Text: as §1

The nature of series [2]: Metabolism stability test (human liver microsomes). Format: in vitro ADME. Conditions: compound concentration 0.5 μmol/L, 37° C., 30 minutes, NADPH. The procedure: Using commercially available pooled human hepatic microsomes, the compound of the present invention was reacted for a constant time, a remaining rate was calculated by comparing a reacted sample and an unreacted sample, thereby, a degree of metabolism of the compound of the present invention in liver was assessed.
A reaction was performed (oxidative reaction) at 37° C. for 0 minute or 30 minutes in the presence of 1 mmol/L NADPH in 0.2 mL of a buffer (50 mmol/L Tris-HCl pH 7.4, 150 mmol/L potassium chloride, 10 mmol/L magnesium chloride) containing 0.5 mg protein/mL of human liver microsomes. After the reaction, 50 μL of the reaction solution was added to 100 μL of a methanol/acetonitrile=1/1 (v/v) solution, mixed and centrifuged at 3000 rpm for 15 minutes. The compound of the present invention in the supernatant was quantified by LC/MS/MS, and a remaining amount of the compound of the present invention after the reaction was calculated, letting a compound amount at 0 minute reaction time to be 100%.

In another series the target is CYP1A2 (Homo sapiens (Human), UniProt P05177). The experiment in a line: CYP inhibition test, CYP1A2. In kind it is in vitro ADME. As to conditions: pooled human liver microsomes; 7-ethoxyresorufin O-deethylation; given as 'five kinds'.
Text: as §1

The target of a further series is CYP2D6 (Homo sapiens (Human), UniProt P10635). The experiment in a line: CYP inhibition test, CYP2D6. In kind it is in vitro ADME. Conditions: pooled human liver microsomes; dextromethorphan O-demethylation; given as 'five kinds'.
Text: as §1

For a further series, the target named is CYP3A4 (Homo sapiens (Human), UniProt P08684). Nature of the series: CYP inhibition test, CYP3A4. Format: in vitro ADME. Conditions: pooled human liver microsomes; terfenadine hydroxylation; given as 'five kinds'.
Text: as §1

The target in a further series is hERG (IKr) (Homo sapiens (Human), UniProt Q12809). Nature of the series: hERG test. In kind it is cell-based. Conditions: CHO cells expressing hERG channel, pH 7.4, 10 μmol/L of test compound, read-out: % inhibition of hERG tail peak current (IKr). From the text:
For the purpose of assessing risk of an electrocardiogram QT interval prolongation of the compound of the present invention, effects of the compound of the present invention on delayed rectifier K^+ current (IKr), which plays an important role in the ventricular repolarization process, was studied using CHO cells expressing human ether-a-go-go related gene (hERG) channel.
After a cell was retained at a membrane potential of −80 mV by whole cell patch clamp method using an automated patch clamp system (QPatch; Sophion BIoscience A/S), IKr induced by application of a leak potential of −50 mV followed by depolarization pulse stimulation at +20 mV for 2 seconds and, further, repolarization pulse stimulation at −50 mV for 2 seconds, was recorded. […] From the recording IKr, an absolute value of the tail peak current was measured based on the current value at the resting membrane potential using analysis software (Falster Patch; Sophion Bioscience A/S). Further, the % inhibition of tail peak current for the compound of the present invention relative to the tail peak current after application of the vehicle is calculated to assess influence of the compound of the present invention on IKr.
(hERG is a cardiac potassium channel; its block is linked to QT prolongation.)

Series [3] can be described thus: Solubility test (1% DMSO addition, pH 6.8 artificial intestinal juice). In kind it is physicochemical. As to conditions: kinetic from dmso stock, 16 hours at 25° C. The procedure:
The solubility of the compound of the present invention was determined under 1% DMSO addition conditions. 10 mmol/L solution of the compound was prepared with DMSO, and 6 μL of the solution of the compound of the present invention was added to 594 μL of pH 6.8 artificial intestinal juice (118 mL of 0.2 mol/L NaOH test solution and water were added to 250 mL of 0.2 mol/L potassium dihydrogen phosphate test solution to reach 1000 mL). The mixture was left standing for 16 hours at 25° C., and the mixture was vacuum-filtered. The filtrate was two-fold diluted with methanol/water=1/1 (V/V), and the compound concentration in the filtrate was measured with HPLC or LC/MS/MS by the absolute calibration method. The dilution concentration and the dilution solvent were changed as necessary.

Chain of CYP2C19 (P33261 whole entry): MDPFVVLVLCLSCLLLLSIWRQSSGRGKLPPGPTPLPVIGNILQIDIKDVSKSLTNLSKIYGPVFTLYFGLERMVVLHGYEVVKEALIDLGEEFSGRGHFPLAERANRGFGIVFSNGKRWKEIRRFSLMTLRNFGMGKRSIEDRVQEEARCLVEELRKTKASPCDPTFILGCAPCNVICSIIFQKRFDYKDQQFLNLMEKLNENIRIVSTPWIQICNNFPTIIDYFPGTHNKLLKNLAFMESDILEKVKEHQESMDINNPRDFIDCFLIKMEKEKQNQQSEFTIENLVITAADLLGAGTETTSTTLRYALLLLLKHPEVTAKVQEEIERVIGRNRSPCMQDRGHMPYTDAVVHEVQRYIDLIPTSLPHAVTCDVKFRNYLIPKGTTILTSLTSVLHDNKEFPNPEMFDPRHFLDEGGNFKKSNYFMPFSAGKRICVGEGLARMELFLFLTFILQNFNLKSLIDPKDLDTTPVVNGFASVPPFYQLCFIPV
Chain of CYP2D6 (P10635 whole entry): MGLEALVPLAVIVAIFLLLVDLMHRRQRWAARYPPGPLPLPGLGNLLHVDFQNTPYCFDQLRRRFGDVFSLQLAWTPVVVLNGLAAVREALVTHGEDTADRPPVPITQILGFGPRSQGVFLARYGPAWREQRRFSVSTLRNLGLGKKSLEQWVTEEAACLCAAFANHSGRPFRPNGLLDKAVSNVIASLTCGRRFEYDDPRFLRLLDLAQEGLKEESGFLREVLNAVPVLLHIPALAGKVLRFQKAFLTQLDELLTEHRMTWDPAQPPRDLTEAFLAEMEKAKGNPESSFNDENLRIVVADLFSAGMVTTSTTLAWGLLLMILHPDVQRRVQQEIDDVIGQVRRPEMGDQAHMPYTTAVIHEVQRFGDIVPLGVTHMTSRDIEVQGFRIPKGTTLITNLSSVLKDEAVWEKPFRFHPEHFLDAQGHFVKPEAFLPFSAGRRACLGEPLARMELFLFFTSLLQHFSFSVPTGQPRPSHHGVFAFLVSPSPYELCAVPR
Chain of hERG (IKr) (Q12809 whole entry): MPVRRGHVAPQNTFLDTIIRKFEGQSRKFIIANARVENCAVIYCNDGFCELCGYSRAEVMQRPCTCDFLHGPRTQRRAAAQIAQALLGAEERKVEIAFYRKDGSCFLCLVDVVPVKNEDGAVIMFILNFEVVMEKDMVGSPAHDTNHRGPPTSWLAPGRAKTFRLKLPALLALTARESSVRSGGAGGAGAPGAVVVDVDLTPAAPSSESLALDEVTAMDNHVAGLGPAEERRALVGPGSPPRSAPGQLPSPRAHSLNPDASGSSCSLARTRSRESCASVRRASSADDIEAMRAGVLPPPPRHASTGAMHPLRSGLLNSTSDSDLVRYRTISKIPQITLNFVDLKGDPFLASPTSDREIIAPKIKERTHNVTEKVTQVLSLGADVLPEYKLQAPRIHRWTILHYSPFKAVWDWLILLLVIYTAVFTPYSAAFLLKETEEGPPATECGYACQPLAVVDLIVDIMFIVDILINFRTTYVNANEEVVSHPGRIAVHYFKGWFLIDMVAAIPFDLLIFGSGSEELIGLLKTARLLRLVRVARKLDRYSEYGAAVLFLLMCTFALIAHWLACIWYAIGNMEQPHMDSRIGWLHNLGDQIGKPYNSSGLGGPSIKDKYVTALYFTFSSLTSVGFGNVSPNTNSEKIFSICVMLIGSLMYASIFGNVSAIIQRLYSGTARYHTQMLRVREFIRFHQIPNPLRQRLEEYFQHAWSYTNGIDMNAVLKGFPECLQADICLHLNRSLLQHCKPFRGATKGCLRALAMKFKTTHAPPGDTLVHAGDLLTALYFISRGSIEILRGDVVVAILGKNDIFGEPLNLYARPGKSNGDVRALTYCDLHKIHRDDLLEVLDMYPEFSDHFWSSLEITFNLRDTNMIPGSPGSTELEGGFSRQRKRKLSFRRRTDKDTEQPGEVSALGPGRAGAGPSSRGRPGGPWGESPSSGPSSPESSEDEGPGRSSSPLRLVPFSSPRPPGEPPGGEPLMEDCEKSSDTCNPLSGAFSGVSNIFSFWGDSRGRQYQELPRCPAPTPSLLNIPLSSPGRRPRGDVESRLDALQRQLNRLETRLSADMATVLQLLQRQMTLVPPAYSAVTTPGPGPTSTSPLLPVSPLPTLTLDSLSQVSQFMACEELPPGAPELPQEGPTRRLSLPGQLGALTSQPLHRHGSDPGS
Chain of CYP1A2 (P05177 whole entry): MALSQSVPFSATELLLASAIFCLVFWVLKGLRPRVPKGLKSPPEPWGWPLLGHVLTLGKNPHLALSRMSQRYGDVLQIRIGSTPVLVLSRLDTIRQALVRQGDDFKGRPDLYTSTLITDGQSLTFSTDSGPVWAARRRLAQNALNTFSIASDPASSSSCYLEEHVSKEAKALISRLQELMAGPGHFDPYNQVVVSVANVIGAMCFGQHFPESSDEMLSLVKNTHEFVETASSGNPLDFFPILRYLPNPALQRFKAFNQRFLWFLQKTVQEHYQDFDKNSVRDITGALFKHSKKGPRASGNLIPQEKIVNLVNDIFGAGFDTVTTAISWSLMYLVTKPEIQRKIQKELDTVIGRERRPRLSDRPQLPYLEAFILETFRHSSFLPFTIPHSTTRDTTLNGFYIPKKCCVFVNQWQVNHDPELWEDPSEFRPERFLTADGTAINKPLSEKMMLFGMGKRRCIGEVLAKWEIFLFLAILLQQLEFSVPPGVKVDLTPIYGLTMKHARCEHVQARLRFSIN
Chain of CYP3A4 (P08684 whole entry): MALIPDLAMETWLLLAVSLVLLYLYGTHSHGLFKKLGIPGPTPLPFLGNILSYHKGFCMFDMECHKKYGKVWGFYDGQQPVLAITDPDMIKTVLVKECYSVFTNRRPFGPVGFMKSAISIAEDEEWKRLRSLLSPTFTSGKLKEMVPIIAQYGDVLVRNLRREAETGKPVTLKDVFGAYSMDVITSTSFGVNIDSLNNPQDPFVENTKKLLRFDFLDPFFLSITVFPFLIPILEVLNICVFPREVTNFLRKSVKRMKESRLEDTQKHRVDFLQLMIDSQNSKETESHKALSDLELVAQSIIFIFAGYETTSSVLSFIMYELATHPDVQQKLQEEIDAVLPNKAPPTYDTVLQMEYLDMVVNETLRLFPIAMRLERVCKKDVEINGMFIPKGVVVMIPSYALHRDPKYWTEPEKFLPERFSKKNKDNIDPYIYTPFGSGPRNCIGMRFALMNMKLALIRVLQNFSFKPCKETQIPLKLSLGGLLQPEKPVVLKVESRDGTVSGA
Chain of CYP2C9 (P11712 whole entry): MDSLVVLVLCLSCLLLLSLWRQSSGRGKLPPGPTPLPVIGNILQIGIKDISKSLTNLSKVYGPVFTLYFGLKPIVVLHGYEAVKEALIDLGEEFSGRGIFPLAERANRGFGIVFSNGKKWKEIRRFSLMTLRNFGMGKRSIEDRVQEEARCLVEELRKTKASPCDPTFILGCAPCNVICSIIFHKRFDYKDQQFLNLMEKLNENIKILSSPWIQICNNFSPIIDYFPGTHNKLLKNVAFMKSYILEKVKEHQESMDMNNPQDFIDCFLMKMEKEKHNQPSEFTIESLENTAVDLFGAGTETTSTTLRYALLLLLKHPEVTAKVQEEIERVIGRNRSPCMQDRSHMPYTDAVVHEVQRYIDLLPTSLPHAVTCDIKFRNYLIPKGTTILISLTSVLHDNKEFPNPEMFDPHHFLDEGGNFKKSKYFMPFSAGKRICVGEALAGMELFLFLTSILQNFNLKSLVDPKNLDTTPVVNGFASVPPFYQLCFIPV
Chain of recombinant human MGAT2 (Q3SYC2 whole entry): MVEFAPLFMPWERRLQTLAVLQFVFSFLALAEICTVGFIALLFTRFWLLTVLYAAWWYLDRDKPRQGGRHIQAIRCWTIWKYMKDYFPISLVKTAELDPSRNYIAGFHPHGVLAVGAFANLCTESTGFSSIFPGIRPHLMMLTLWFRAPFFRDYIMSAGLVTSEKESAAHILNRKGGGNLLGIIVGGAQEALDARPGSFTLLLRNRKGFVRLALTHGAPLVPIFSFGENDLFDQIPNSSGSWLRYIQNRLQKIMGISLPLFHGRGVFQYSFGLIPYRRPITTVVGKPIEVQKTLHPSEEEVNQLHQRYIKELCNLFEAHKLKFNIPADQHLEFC

For the compound `CS(=O)(=O)CC(=O)Nc1c(-c2ccc(C#N)cn2)nn2c1C(=O)N[C@@]1(CCc3cc(OCC(F)(F)F)ccc31)C2` [Compound I-3], the 50% inhibitory concentration (IC50) (commonly the midpoint of a concentration-inhibition curve) at recombinant human MGAT2 is 0.00199 µM. Moreover, the Residual rate in the series “Solution stability test” (pH=1, 40° C.) was found to be 100.2%; in “Solution stability test” (pH=7, 40° C.), 100.9%; in “Solution stability test” (pH=9, 40° C.), 100.2%.

For `CS(=O)(=O)CC(=O)Nc1c(-c2ccc(F)c(F)c2)nn2c1C(=O)N[C@@]1(CCc3cc(OCC(F)(F)F)ccc31)C2` [Compound I-33], the bioavailability – broadly, the share of a dose that reaches the circulation, judged against a reference dose that is usually intravenous – in series [1] was 60.5%. Further, the IC50 against CYP2C9, against CYP2C19, on CYP1A2, at CYP2D6 and against CYP3A4 was above 20 µM in each case. Besides, the Remaining rate in series [2] came to 98.5%. For the same compound, at hERG (IKr), the inhibition (commonly the percentage by which the read-out fell short of the control) at 10 min, 10 μmol/L turned out to be 21.3%.

In [1], `CS(=O)(=O)CC(=O)Nc1c(-c2ccc(Cl)cn2)nn2c1C(=O)N[C@@]1(CCOc3cc(F)cc(F)c31)C2` [Compound I-137] registered a bioavailability of 49%. For the same compound, in [3], the solubility (as a rule, the concentration that dissolves in the medium under given conditions) at 16 h is above 50 µM. This compound had a Remaining rate in series [2] of 101%. Also, the inhibition at 10 min, 10 μmol/L at hERG (IKr) was 23.6%.

Take `CS(=O)(=O)CC(=O)Nc1c(-c2ccc(C3CC3)cn2)nn2c1C(=O)N[C@@]1(CCc3cc(F)cc(F)c31)C2` [Compound I-141]: the bioavailability in series [1] was 67%. Further, the IC50 against CYP2C9, on CYP2C19, on CYP1A2, against CYP2D6 and at CYP3A4 was above 20 µM in each case. In series [3], this compound displayed a solubility at 16 h of 48.9 µM (≈ 25.8 µg/mL). In series [2], this compound registered a Remaining rate of 99.4%. For the same compound, the inhibition at 10 min, 10 μmol/L on hERG (IKr) amounted to 14%.

On to `CS(=O)(=O)CC(=O)Nc1c(-c2ccc(Cl)cn2)nn2c1C(=O)N[C@@]1(CCc3cc(F)cc(F)c31)C2` [Compound I-142], for which, in [1], the bioavailability is 66.2%. Further, the IC50 on CYP2C9, on CYP2C19, on CYP1A2, against CYP2D6 and against CYP3A4 was above 20 µM in each case. The solubility at 16 h in [3] is above 50 µM. In series [2], this compound returned a Remaining rate of 106%. For the same compound, the inhibition at 10 min, 10 μmol/L at hERG (IKr) is 10.6%.
